Measurements published in patent publication US4847247A, “Penicillin derivatives as anti-inflammatory and antidegenerative agents” (Merck & Co., Inc., priority 1986, dated 1989).
Where two headings read alike, the source gives them in different places.

Target: T1, Human Polymorphonuclear Leukocyte Elastase (Homo sapiens, UniProt P08246)
T1 construct: Crude extract of human polymorphonuclear leukocytes (PMN) containing elastase activity; endogenous in cells; host or cells: human polymorphonuclear leukocytes (crude extract)
T1 sequence (P08246 30-247 limits assumed): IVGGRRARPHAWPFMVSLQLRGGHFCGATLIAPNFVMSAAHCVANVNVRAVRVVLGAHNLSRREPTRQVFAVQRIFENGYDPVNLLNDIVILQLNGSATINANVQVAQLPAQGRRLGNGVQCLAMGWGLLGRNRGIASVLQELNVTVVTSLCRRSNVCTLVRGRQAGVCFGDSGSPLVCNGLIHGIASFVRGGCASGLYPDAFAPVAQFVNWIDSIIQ
Assay: Inhibition of human polymorphonuclear leukocyte (granulocyte) elastase via hydrolysis of Boc-AAPAN
Type: biochemical
Description: Enzyme assay for the Inhibition of Human Polymorphonuclear Leukocyte Elastase Via Hydrolysis of N-t-Boc-alanyl-alanyl-prolylalanine-p-nitroanilide
0.05M TES (N-tris[hydroxymethyl]methyl-2-amino-ethanesulfonic acid) buffer, pH 7.5.
0.2 mM N-t-Boc-alanyl-alanyl-prolyl-alanine-p-nitroanilide (Boc-AAPAN).
To prepare substrate, the solid (m.w. 550) was first dissolved in 10.0 ml DMSO. Buffer at pH 7.5 was then added to a final volume of 100 ml.
Crude extract of human polymorphonuclear leukocytes (PMN) containing elastase activity.
Inhibitors (cephalosporin sulfoxide esters) to be tested dissolved in DMSO just before use.
To 1.0 ml of 0.2 mM Boc-AAPAN in a cuvette, 0.01-0.1 ml of DMSO with or without inhibitor was added. After mixing, a measurement was taken at 410 mμ to detect any spontaneous hydrolysis due to of test compound. 0.05 Milliliters of PMN extract was then added and the αOD/minute at 410 mμ was measured and recorded. Beckman model 35 spectrophotometer was used.
The elastase activity in the crude PMN extract may vary from one preparation to another. A control of each new batch is run, and the volume added in the assay procedure is adjusted according to activity.

[1] = crude human PMN extract, 0.2 mM Boc-AAPAN, pH 7.5, 410 mμ, 2 minutes after zero time, read-out: IC50 (dosage for 50% inhibition of the enzyme activity) (converted)
[2] = read-out: IC50 (dosage for 50% inhibition of the enzyme activity), crude human PMN extract, 0.2 mM Boc-AAPAN, pH 7.5, 410 mμ, 2 minutes after zero time

SMILES	IC50 [1]	other results
Cc1ccc(S(=O)(=O)C[C@H]2C(=O)N3[C@@H]2[S+]([O-])C(C)(C)[C@@H]3C(=O)OCc2ccccc2)cc1 (stereo partly drawn) [6α-(TS)CH2 / 1 / OBZ]	8.41 µM	
Cc1ccc(S(=O)(=O)C[C@H]2C(=O)N3[C@@H](C(=O)OCc4ccccc4)C(C)(C)S(=O)(=O)[C@H]23)cc1 [6α-(TS)CH2 / 2 / OBZ (2nd)]	4.07 µM	
Cc1ccc(S(=O)(=O)C[C@H]2C(=O)N3[C@@H](C(=O)OCc4ccccc4)C(C)(C)S(=O)(=O)[C@H]23)cc1 [6α-(TS)CH2 / 2 / OBZ]	0.61 µM	
Cc1ccc(S(=O)(=O)N[C@H]2C(=O)N3[C@@H]2SC(C)(C)[C@@H]3C(=O)OCc2ccccc2)cc1 [6α-(TS)NH / 0 / OBZ]	0.217 µM	
Cc1ccc(S(=O)(=O)N[C@H]2C(=O)N3[C@@H](C(=O)OCc4ccccc4)C(C)(C)S(=O)(=O)[C@H]23)cc1 [6α-(TS)NH / 2 / OBZ]	0.406 µM	
CC1(C)[C@H](C(=O)OCc2ccc(C(=O)O)cc2)N2C(=O)[C@H](NC(=O)C(F)(F)F)[C@H]2[S+]1[O-] (stereo partly drawn) [6α-CF3 (CO)NH / 1 / OBZ(p-COOH)]	1.08 µM	
CN(CC(=O)O)C(=O)[C@@H]1N2C(=O)[C@H](NC(=O)C(F)(F)F)[C@H]2S(=O)(=O)C1(C)C [6α-CF3 (CO)NH / 2 / N(CH3)(CH2 COOH)]	12 µM	
CN(CC(=O)OC(C)(C)C)C(=O)[C@@H]1N2C(=O)[C@H](NC(=O)C(F)(F)F)[C@H]2S(=O)(=O)C1(C)C [6α-CF3 (CO)NH / 2 / N(CH3)(CH2 COOtBu)]	1.48 µM	
CN(Cc1ccc(C(=O)O)cc1)C(=O)[C@@H]1N2C(=O)[C@H](NC(=O)C(F)(F)F)[C@H]2S(=O)(=O)C1(C)C [6α-CF3 (CO)NH / 2 / N(CH3)BZ(p-COOH)]	1.42 µM	
CN(Cc1ccc(C(=O)OC(C)(C)C)cc1)C(=O)[C@@H]1N2C(=O)[C@H](NC(=O)C(F)(F)F)[C@H]2S(=O)(=O)C1(C)C [6α-CF3 (CO)NH / 2 / N(CH3)BZ(p-COOtBu)]	1.28 µM	
CC1(C)[C@H](C(=O)OCc2ccc(C(=O)O)cc2)N2C(=O)[C@H](NC(=O)C(F)(F)F)[C@H]2S1(=O)=O [6α-CF3 (CO)NH / 2 / OBZ(p-COOH)]	0.0836 µM	
CC(C)(C)OC(=O)c1ccc(COC(=O)[C@@H]2N3C(=O)[C@H](NC(=O)C(F)(F)F)[C@H]3S(=O)(=O)C2(C)C)cc1 [6α-CF3 (CO)NH / 2 / OBZ(p-COOtBu)]	0.187 µM	
CC(C)(C)OC(=O)[C@@H]1CCCN1C(=O)[C@@H]1N2C(=O)[C@H](NC(=O)C(F)(F)F)[C@H]2S(=O)(=O)C1(C)C [6α-CF3 (CO)NH / 2 / drawing 31]	40.2 µM	
CN(C(=O)C(F)(F)F)[C@H]1C(=O)N2[C@@H]1SC(C)(C)[C@@H]2C(=O)OCc1ccccc1 [6α-CF3 CON(CH3) / 0 / OBZ, benzyl 6α-(N-methyltrifluoroacetamido)penicillinate]	7.2 µM	
CN(C(=O)C(F)(F)F)[C@H]1C(=O)N2[C@@H]1[S+]([O-])C(C)(C)[C@@H]2C(=O)OCc1ccccc1 (stereo partly drawn) [6α-CF3 CON(CH3) / 1 / OBZ]	6.94 µM	
CN(C(=O)C(F)(F)F)[C@H]1C(=O)N2[C@@H](C(=O)OCc3ccccc3)C(C)(C)S(=O)(=O)[C@H]12 [6α-CF3 CON(CH3) / 2 / OBZ, Benzyl 6α-(N-methyltrifluoroacetamido)penicillanate-1,1-dioxide]		IC50: 0.446 µM
CC1(C)S[C@@H]2[C@@H](NC(=O)C(F)(F)F)C(=O)N2[C@H]1C(=O)OCc1ccccc1 [6α-CF3 CONH / 0 / OBZ, Benzyl 6α-trifluoroacetamidopenicillanate]	9.94 µM	
CC1(C)[C@H](C(=O)OCc2ccccc2)N2C(=O)[C@H](NC(=O)C(F)(F)F)[C@H]2S1(=O)=O [6α-CF3 CONH / 2 / OBZ, Benzyl 6α-trifluoroacetamidopenicillanate-1,1-dioxide]		IC50: 0.345 µM
CC1(C)[C@H](C(=O)OCC(F)(F)F)N2C(=O)[C@H](NC(=O)C(F)(F)F)[C@H]2S1(=O)=O [6α-CF3 CONH / 2 / OCH2 CF3]	0.235 µM	
CC1(C)S[C@@H]2[C@@H](COC(=O)NCc3ccccc3)C(=O)N2[C@H]1C(=O)OCc1ccccc1 [6α-CH2 O(CO)NH(BZ) / 0 / OBZ]	11 µM	
CC1(C)[C@H](C(=O)OCc2ccccc2)N2C(=O)[C@H](COC(=O)NCc3ccccc3)[C@H]2S1(=O)=O [6α-CH2 O(CO)NH(BZ) / 2 / OBZ]		IC50: 8.22 µM
CC(O)[C@H]1C(=O)N2[C@@H]1SC(C)(C)[C@@H]2C(=O)OCc1ccccc1 (stereo partly drawn) [6α-CH3 CH(OH) / 0 / OBZ]	59.6 µM	
CC1(C)[C@H](C(=O)OCc2ccccc2)N2C(=O)[C@H](OCc3ccccc3)[C@H]2S1(=O)=O [6α-OBZ / 2 / OBZ]	9.31 µM	

SMILES	IC50 [1]	other results
CCO[C@H]1C(=O)N2[C@@H](C(=O)OCc3ccc(C(=O)O)cc3)C(C)(C)S(=O)(=O)[C@H]12 [6α-OC2 H5 / 2 / OBZ(p-COOH)]		IC50: 1.46 µM
CCO[C@H]1C(=O)N2[C@@H](C(=O)OCc3ccccc3)C(C)(C)S(=O)(=O)[C@H]12 [6α-OC2 H5 / 2 / OBZ, Benzyl 6α-ethoxypenicillanate-1,1-dioxide]	5.44 µM	
CO[C@H]1C(=O)N2[C@@H](C(=O)Cc3ccccc3)C(C)(C)S(=O)(=O)[C@H]12 [6α-OCH3 / 2 / BZ]	5.93 µM	
CO[C@H]1C(=O)N2[C@@H](C(=O)OCc3ccc(C(=O)O)cc3)C(C)(C)S(=O)(=O)[C@H]12 [6α-OCH3 / 2 / OBZ(p-COOH)]	5.03 µM	
CO[C@H]1C(=O)N2[C@@H](C(=O)OCC(F)(F)F)C(C)(C)S(=O)(=O)[C@H]12 [6α-OCH3 / 2 / OCH2 CF3]	11.6 µM	
CO[C@H]1C(=O)N2[C@@H](C(=O)OCC(=O)OC(C)(C)C)C(C)(C)S(=O)(=O)[C@H]12 [6α-OCH3 / 2 / OCH2 COOtBu]	7.95 µM	
COC(=O)[C@@H]1N2C(=O)[C@H](OC)[C@H]2S(=O)(=O)C1(C)C [6α-OCH3 / 2 / OCH3]	72.1 µM	
CN(Cc1ccccc1)C(=O)[C@@H]1N2C(=O)[C@@H](NC(=O)C(F)(F)F)[C@H]2SC1(C)C [6β-CF3 (CO)NH / 0 / N(CH3)(BZ), 2,2-diimethyl-6-(trifluoroacetamido)-3-(N-methyl-N-benzylcarbamoyl)penam]	1.44 µM	
CN(Cc1ccccc1)C(=O)[C@@H]1N2C(=O)[C@@H](NC(=O)C(F)(F)F)[C@H]2S(=O)(=O)C1(C)C [6β-CF3 (CO)NH / 2 / N(CH3)(BZ), 2,2-Dimethyl-6-(trifluoro-acetamido)-3-(N-methyl-N-benzylcarbamoyl)penam-1,1-dioxide]	4.47 µM	
COc1ccc(CNC(=O)[C@@H]2N3C(=O)[C@@H](NC(=O)C(F)(F)F)[C@H]3S(=O)(=O)C2(C)C)cc1 [6β-CF3 (CO)NH / 2 / NHBZ(p-OCH3)]	0.647 µM	
CC1(C)[C@H](C(=O)OCc2ccc(C(=O)O)cc2)N2C(=O)[C@@H](NC(=O)C(F)(F)F)[C@H]2S1(=O)=O [6β-CF3 (CO)NH / 2 / OBZ(p-COOH)]	2.09 µM	
CC(C)(C)OC(=O)c1ccc(COC(=O)[C@@H]2N3C(=O)[C@@H](NC(=O)C(F)(F)F)[C@H]3S(=O)(=O)C2(C)C)cc1 [6β-CF3 (CO)NH / 2 / OBZ(p-COOtBu)]	0.935 µM	
CC1(C)S[C@@H]2[C@H](NC(=O)C(F)(F)F)C(=O)N2[C@H]1C(=O)OCc1ccccc1 [6β-CF3 CONH / 0 / OBZ, benzyl 6β-trifluoroacetamidopenicillanate]	29.8 µM	
CC1(C)[C@H](C(=O)OCc2ccccc2)N2C(=O)[C@@H](NC(=O)C(F)(F)F)[C@H]2S1(=O)=O [6β-CF3 CONH / 2 / OBZ]		IC50: 4.6 µM
CC1(C)[C@H](C(=O)c2ccccc2)N2C(=O)[C@@H](NC(=O)C(F)(F)F)[C@H]2S1(=O)=O [6β-CF3 CONH / 2 / Ph]	2.47 µM	
CC1(C)S[C@@H]2[C@H](COC(=O)NCc3ccccc3)C(=O)N2[C@H]1C(=O)OCc1ccccc1 [6β-CH2 O(CO)NH(BZ) / 0 / OBZ]	33 µM	
CC1(C)[C@H](C(=O)OCc2ccccc2)N2C(=O)[C@@H](COC(=O)NCc3ccccc3)[C@H]2S1(=O)=O [6β-CH2 O(CO)NH(BZ) / 2 / OBZ]		IC50: 1.44 µM
CC1(C)S[C@@H]2C(OC(=O)Cc3ccccc3)C(=O)N2[C@H]1C(=O)OCc1ccccc1 (stereo partly drawn) [(BZ)COO / 0 / OBZ]		IC50 [2]: 47 µM
CC1(C)[C@H](C(=O)OCc2ccccc2)N2C(=O)C(OC(=O)Cc3ccccc3)[C@H]2S1(=O)=O (stereo partly drawn) [(BZ)COO / 2 / OBZ]		IC50 [2]: 8.74 µM
CC1(C)S[C@@H]2C(OC(=O)COc3ccccc3)C(=O)N2[C@H]1C(=O)OCc1ccccc1 (stereo partly drawn) [C6 H5 OCH2 COO / 0 / OBZ]	45.3 µM	
CC1(C)[C@H](C(=O)OCc2ccccc2)N2C(=O)C(OC(=O)COc3ccccc3)[C@H]2[S+]1[O-] (stereo partly drawn) [C6 H5 OCH2 COO / 1 / OBZ]	10.9 µM	
CC(=O)O[C@H]1C(=O)N2[C@@H]1SC(C)(C)[C@@H]2C(=O)OCc1ccccc1 [CH3 COO / 0 / OBZ]	28.6 µM	
